{
  "source": "patent US11717557B2",
  "about": "“Use of PRG4 as an anti-inflammatory agent” (Lubris LLC, priority 2015, dated 2023)",
  "key": {"[1]": {"test_system": "Rheumatoid arthritis fibroblast-like synoviocytes (RA-FLS)", "assay": "Cytokine-induced RA-FLS proliferation (MTS)", "type": "cell-based", "details": "48 hours, p<0.05", "protocol": "Rheumatoid arthritis fibroblast-like synoviocytes (RA-FLS; Cell Applications, USA) between 3rd and 6th passages were used to conduct these experiments. In sterile 96 well plates, RA-FLS (5,000 cells per well in 80 μL) were cultured in DMEM supplemented with 1% FBS and 1 mM pyruvate and stimulated with recombinant human interleukin-1 beta (IL-1β; R & D systems) at 20 ng/mL or tumor necrosis factor alpha (TNF-α; R & D systems) at 5 ng/mL for 48 hours at 37° C. in the absence or presence of rhPRG4 or HMW HA at a final concentration of 20, 40 or 80 μg/mL. The total volume in each well was 200 μL. Cell proliferation, an indication of inflammation, was determined using the CellTiter 96 AQueous one solution cell proliferation assay (MTS; Promega, USA) and the 490 nm absorbance was determined. Data is presented as the number of fold change in 490 nm absorbance compared to untreated control RA-FLS. The data represents the average of 3 independent experiments with at least triplicate wells per treatment. To evaluate the contribution of CD44 to the effect of rhPRG4 or HMW HA, RA-FLS were stimulated with IL-1β or TNF-α as described above. Treatment with rhPRG4 or HMW HA was conducted to a final concentration of 80 μg/mL in the absence or presence of IM7 (Abcam, USA), a CD44 neutralizing antibody that recognizes a conserved epitope across all CD44 isoforms (Samson et al., Exp Eye Res, 2014; 127C:14-19), at a final dilution of 1:200. The total volume in each well was 200 μl. Cell proliferation across the experimental groups was determined as described above and data is presented as the number of fold change in 490 nm absorbance compared to untreated control RA-FLS. The data represents the average of 3 independent experiments with at least triplicate wells per treatment."}, "whole citrated blood [2]": {"test_system": "whole citrated blood", "assay": "Lubricin alone, inflammatory cytokines in whole blood", "type": "cell-based, human", "details": "lubricin 0.57 mg/mL, 60 minutes; versus saline control", "protocol": "Utilizing the same approach the effect of lubricin on the generation of inflammatory cytokines in whole blood was also studied using similar experimental settings. In these studies the effect of lubricin (0.57 mg/mL) was studied by supplementing it to the whole citrated blood drawn from the normal healthy volunteers. The samples were profiled for inflammatory cytokine levels along with a saline control in samples incubated for 60 minutes. Whole blood was centrifuged to obtain plasma which was profiled for various inflammatory cytokines using high sensitivity cytokine assay."}, "whole citrated blood [3]": {"test_system": "whole citrated blood", "assay": "Lubricin on LPS-mediated inflammatory cytokine generation in whole blood", "type": "cell-based, human", "details": "LPS 10 ng/mL then lubricin 0.57 mg/mL, versus LPS alone", "protocol": "The effect of lubricin on LPS-mediated inflammatory cytokine generation was studied using Biochip Array technology. In these studies LPS alone at 10 ng/mL and LPS pre-supplementation at 10 ng/mL followed by lubricin supplementation at 0.57 mg/mL were compared in the whole citrated blood for the generation of various inflammatory cytokines. All samples were incubated for 60 minutes and centrifuged to obtain plasma. This plasma was subsequently analyzed using the biochip array for inflammatory cytokines. LPS was supplemented to whole blood in a 1:10 dilution."}, "human whole blood": {"test_system": "human whole blood", "assay": "Lubricin on tissue factor mediated inflammatory cytokine generation in whole blood", "type": "cell-based", "protocol": "The effect of lubricin on recombinant tissue factor (TF) mediated inflammatory cytokine generation was studied using Biochip Array technology. In these studies recombiplastin brand (IL Laboratories) tissue factor was used to trigger the generation of inflammatory cytokines in human whole blood. The effect of lubricin at 0.57 mg/mL was studied by supplementing this agent prior to the addition of tissue factor to the whole blood. Tissue factor alone served as a positive control. The blood samples were centrifuged and plasma retrieved. This plasma was then profiled for the inflammatory cytokine profile on the Randox Biochip arrays. TF was supplemented to whole blood in a 1:10 dilution."}},
  "data": [
    {"substance": "rhPRG4: full-length recombinant human PRG4 (lubricin) glycoprotein produced by CHO-M cells (Lubris), Mr≅240 KDa", "values": [
      {"measurement": "RA-FLS proliferation with IL-1β stimulation", "setting": "[1]; IL-1β 20 ng/mL, treatment 40 and 80 μg/mL", "result": "significantly suppressed"},
      {"measurement": "RA-FLS proliferation with TNF-α stimulation", "setting": "[1]; TNF-α 5 ng/mL, treatment 20, 40 and 80 μg/mL", "result": "significantly suppressed"},
      {"measurement": "VEGF, IL8, IL6 and IL10", "setting": "whole citrated blood [2]", "result": "most prominent decrease"},
      {"measurement": "production of IL-4, IL-6, IL-8, IL-10, VEGF, TNF-α, IL-1β, MCP-1 and EGF", "setting": "whole citrated blood [2]", "result": "decrease"},
      {"measurement": "IL-4, IL-6, IL-8, IL-10, VEGF, TNF-α, IL-1β, MCP-1 and EGF", "setting": "whole citrated blood [3]; 60 minutes", "result": "decrease"},
      {"measurement": "EGF, IL10, VEGF, MCP1, IL1b and TNF levels", "setting": "whole citrated blood [3]", "result": "marked decrease"},
      {"measurement": "IL-6, IL-8, VEGF, TNF-α, IL-1α, IL-1β, MCP-1 and EGF", "setting": "human whole blood; lubricin 0.57 mg/mL before tissue factor (1:10), versus TF alone", "result": "decrease"},
      {"measurement": "TNF-α and VEGF levels", "setting": "human whole blood; lubricin 0.57 mg/mL, tissue factor supplemented samples", "result": "pronounced decrease"}
    ]}
  ]
}
